Assay: 4-CPA levels in Eucalyptus grandis cuttings by LC-MS (translocation, release from conjugates)
Assay type: in vivo
Method: E. grandis cuttings were harvested at time 0, 1, 6 and 24 hours after the indicated treatments. The cutting foliage and basal ends (approximately 2-3 cm of the base) were harvested separately using a sharp pruning shear, rinsed well under a tap water stream, wiped with a paper towel and frozen in liquid nitrogen. Then, each sample was grinded well while still frozen, using an IKA lab mill. For the analysis, 3-6 technical replicates, weight 190-240 mg, were taken from each sample into fresh 2 ml Eppendorf™ tubes. Auxins were extracted in 1 ml of cold 79% isopropanol, 20% methanol and 1% acetic acid solution containing 20 ng of […] IBA and IAA as internal standards. The tubes were vortexed for 1 hr at 4° C. and then centrifuged at 14,000 RPM for 15 minutes. The supernatants were transferred to fresh 2 ml Eppendorf™ tubes. Two more extraction cycles were performed using 0.5 ml of extraction solvent without the internal standards. The tubes containing the collected supernatants were placed in a SpeedVac™ centrifuge for solvent evaporation under room temperature. The pellets were dissolved in pre-chilled 200 μl of 50% methanol, centrifuged, and the supernatant was filtered through […] PDFV syringe filters 13 mm into fresh 2 ml tubes. The ready extractions were kept under −20° C. till analyzed.
LC-MS analyses were conducted using UPLC-Triple Quadrupole-MS device (Waters Xevo TQ MS). Separation was performed on Waters Acquity™ UPLC BEH C18 1.7 μm 2.1×100 mm column with a VanGuard™ precolumn (BEH C18 1.7 μm 2.1×5 mm). Chromatographic and MS parameters were as follows: the mobile phase consisted of water (phase A) and acetonitrile (phase B), both containing 0.1% formic acid in the gradient elution mode. The solvent gradient program was as follows: […]
The flow rate was 0.3 ml/minute, and the column temperature was kept at 35° C. The analyses were performed using the ESI source in negative ion mode with the following settings: capillary voltage 3.1 kV, cone voltage 30 V, desolvation temperature 400° C., desolvation gas flow 565 liters/hour, source temperature 140° C. Quantitation was performed using MRM acquisition by monitoring the 185/127, 185/141, RT=5.77, dwell time of 161 msec for each transition. Calibration curve was used to calculate the concentration of 4-CPA. Acquisition of LC-MS data was performed under MassLynx™ V4.1 software (Waters).
In order to determine whether trend observed in Arabidopsis occurs also in eucalyptus cuttings, the 4-CPA translocation directionality was first examined by treating cuttings with 4-CPA (100 μM) either by submergence of the cutting base or by spraying the leaves. At several time points (i.e. 0, 1, 6 and 24 hours), the cutting base (bottom 2 cm) and the leaves were separately extracted (with isopropanol/methanol/acetic acid solution) and 4-CPA levels were determined by HPLC-MS/MS.
In order to evaluate the rate of conjugates hydrolysis, 4-CPA levels were monitored following treatment with Compounds 1s and 1t. Cuttings were treated with IBA alone (by submerging the cutting base), or with IBA and Compound 1s or it by submerging the cutting base and by spraying the leaves with Compound 1s or 1t. Cutting bases (bottom 2 cm) and leaves were separately extracted 6, 24 and 48 hours after treatment and hormones levels were determined by HPLC-MS/MS.

[1] = 100 μM 4-CPA applied to the cutting base

Compound: O=C(O)COc1ccc(Cl)cc1 [Compound 4-CPA, 4-chloro-phenoxyacetic acid, reference compound]
- 4-CPA level locally (leaves) and in the cutting base (100 μM 4-CPA applied to leaves by spraying): about 150 ng/gram
- 4-CPA level in leaves [1]: less than 10 ng/gram
- 4-CPA level in the cutting base (local) [1]: about 275 ng/gram
- time at which 4-CPA levels peaked following application to the leaves (100 μM 4-CPA sprayed on leaves): 6 h
- 4-CPA levels throughout the measurements (treatment with free 4-CPA or with conjugate): 250-300 ng/gram
